Molecular target: T1, human norepinephrine transporter (hNET) (Homo sapiens, UniProt P23975)
T1 construct: expressed in transfected cells
Test: fluorescent neurotransmitter transporter uptake assay (plate reader)
Assay type: cell-based
Conditions: HEK-hNET-hVMAT2-mCherry cells; compounds selected for follow-up assays
Experimental: Cell line: All screening was done in a line of human embryonic kidney cells stably expressing the human norepinephrine transporter and the vesicular monoamine transporter 2 (HEK-hNET- -hVMAT2-mCherry). Human VMAT2 expression, in addition to hNET, more fully recapitulates a neuronal phenotype in cell culture. Cells were imaged and fully characterized for functionality (Figure 1). […] Screening: Synthesized compounds were tested for interaction with NET via a three-step process. First, all compounds were tested using a commercially available fluorescent assay (neurotransmitter transport uptake kit, Molecular Devices, San Jose, CA, USA) for the assessment of plasmalemmal monoamine transport ability. Cells were plated in poly-D-lysine (PDL)-coated 96-well plates (Corning Inc., Corning, NY, USA) to 100% confluence. The following day, cell media (DMEM, 10% fetal bovine serum, 1% penicillin/streptomycin) was removed, and experimental media (Hank’s balanced salt solution, Sigma-Aldrich) was added. […] Plates were incubated for 1 h, then read on a fluorescent plate reader (Thermo Fisher). Experiments were conducted in triplicate. […] Cells were plated to confluence in 48-well PDL-coated plates the day prior to the experiment. For experiments, media was removed, cells were rinsed with phosphate buffered saline (PBS), and incubated with or without compounds or desipramine (10 nM to 10 μM, non-specific uptake measured by addition of 100 μM desipramine) for ten minutes at 37 °C. Dopamine (1 μM total concentration with 200 nM ^3H-dopamine tracer) was added and uptake proceeded for 10 min at 37 °C. Cells were then rinsed three times with PBS, lysed with 0.1 N NaOH, and measured via liquid scintillation counting (Beckman Coulter, Brea, CA, USA). Finally, each selected compound was visualized with high-content imaging using the Array Scan VTI HCS (Cellomics). Cells were seeded to 80% confluence in PDL-coated, glass-bottom 96-well plates. Media was removed and DMEM without phenol red with or without compounds or desipramine (10 nM to 10 μM) was added. Following a one-hour incubation, cells were imaged. Forty-nine contiguous fields per well were taken and total fluorescence in the green channel was reported.
Figure 1 Plate reader-based fluorescent assay using human NET in a validation assay of the scree-ning strategy using the known NET inhibitor desipramine as a positive control. […] (C) Finally, uptake was visualized using high content imaging with the Array Scan VTI HCS (Cellomics, Thermo Fisher Scientific, Waltham, MA, USA) to visualize nuclei (stained with DAPI), VMAT2-mCherry, and dye. All experiments were conducted in triplicate and analyzed with nonlinear regression analysis in GraphPad Prism (GraphPad Software, La Jolla, CA, USA). Scale: […].

T1 sequence (P23975 whole entry): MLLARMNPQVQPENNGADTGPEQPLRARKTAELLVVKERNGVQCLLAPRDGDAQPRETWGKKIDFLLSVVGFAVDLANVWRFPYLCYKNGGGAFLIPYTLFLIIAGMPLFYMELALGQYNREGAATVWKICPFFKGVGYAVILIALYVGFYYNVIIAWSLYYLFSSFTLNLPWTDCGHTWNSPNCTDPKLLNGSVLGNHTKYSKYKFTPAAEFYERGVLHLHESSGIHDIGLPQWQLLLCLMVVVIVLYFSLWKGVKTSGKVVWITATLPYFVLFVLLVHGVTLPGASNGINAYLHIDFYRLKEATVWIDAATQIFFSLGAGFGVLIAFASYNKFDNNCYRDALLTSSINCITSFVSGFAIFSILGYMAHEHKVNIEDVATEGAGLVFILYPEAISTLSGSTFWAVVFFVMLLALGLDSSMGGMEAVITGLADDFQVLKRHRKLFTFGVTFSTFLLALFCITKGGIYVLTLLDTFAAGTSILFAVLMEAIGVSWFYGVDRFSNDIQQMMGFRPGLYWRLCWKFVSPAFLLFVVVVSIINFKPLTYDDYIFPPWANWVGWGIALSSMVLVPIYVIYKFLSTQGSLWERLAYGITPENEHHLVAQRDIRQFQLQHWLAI

SMILES	modulation of transport activity in the fluorescent screen (ranking)
C=CCc1cc(Cc2cccc(CC=C)c2OC)ccc1OC [Compound C4a, 3,3′-Diallyl-2,4′-dimethoxy-diphenyl-methan]	most potent modulators of transport activity
C=CCc1cc(NC(C)=O)c(O)c(-c2ccc(OC)c(CC=C)c2)c1 [Compound H8]	most potent modulators of transport activity
CC(C)(C)c1ccc(O)c(-c2cc(C(C)(C)C)ccc2O)c1 [Compound M6]	most potent modulators of transport activity
C=CCc1ccc(O)c(-c2ccc(OC)c(CC=C)c2)c1 [Compound H11, 4′-O-methylhonokiol]	most potent modulators of transport activity
C=CCc1ccc(OC)c(-c2ccc(OC)c(CC=C)c2)c1 [Compound H16]	most potent modulators of transport activity
CCCc1ccc(OC)c(-c2ccc(OC)c(CCC)c2)c1 [Compound H20]	most potent modulators of transport activity

Source: paper PMC6222891, “Bioinspired Honokiol Analogs and Their Evaluation for Activity on the Norepinephrine Transporter” (Molecules : A Journal of Synthetic Chemistry and Natural …, 2018)
